Where two headings read alike, the source gives them in different places.
Columns and labels:
[1] = set-up: method as in doi:10.5599/admet.5.1.373; conditions: calibration set; predetermined by isocratic measurements; cited from earlier work
[2] = set-up: method as in PMID 11472245; conditions: cited from earlier work
[3] = Phospholipid binding at pH 7.4 on IAM PC.DD2 HPLC column; type: physicochemical; set-up: key to CHI IAM: approximates acetonitrile concentration (%) in mobile phase at elution; conditions: for CHI IAM: pH 7.4; for log k IAM: pH 7.4, derived from CHI IAM by equation 1
Procedure, shortened: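 Gradient retention on IAM PC.DD2 column (100 x 4.6 mm) with 50 mM ammonium acetate pH 7.4, 1.5 mL/min, 6 min cycle. Retention calibrated against acetophenone homologues to give CHI IAM (approximate acetonitrile concentration at elution), converted to log k IAM by equation.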

[4] = system: alpha-1-acid-glycoprotein (AGP); test: Protein binding on Chiralpak AGP HPLC column; conditions: pH 7.4, Chiralpak AGP
Procedure, shortened: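 Binding measured by gradient HPLC on immobilised HSA or AGP stationary phases.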

[5] = CHI lipophilicity by gradient reversed-phase HPLC (Gemini NX-C-18); conditions: for chromatographic logD: Gemini NX-C-18 reversed-phase HPLC column, pH 7.4
Procedure, shortened: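 Calibrated gradient retention times came from a 50 x 3 mm, 5 μm C-18 column run with a 0–100% linear acetonitrile gradient. A standard compound set converted these times to CHI values.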

AGP [6] = test: Literature % binding to AGP by equilibrium dialysis (calibration set); conditions: log k = log (%binding/(101-%binding)) from literature % binding
hERG channel = conditions: cited from earlier work
AGP [7] = conditions: calibration set; equilibrium dialysis; literature; cited from earlier work
HSA [8] = conditions: calibration set; equilibrium dialysis; literature; cited from earlier work
[9] = molecular target: human serum albumin (HSA) (Homo sapiens, UniProt P02768); test: Protein binding on Chiralpak HSA HPLC column; conditions: pH 7.4, Chiralpak HSA
Description: The measurement of the biomimetic properties of the available drugs was conducted in our laboratories. Generic gradient HPLC methods were used to determine the chromatographic hydrophobicity Index (CHI) using mobile phases at three different pH values. The protein binding of the compounds was measured using immobilised human serum albumin (HSA), and alpha-1-acid-glycoprotein (AGP) stationary phases. The phospholipid-binding was measured using the immobilised artificial membrane (IAM) stationary phase. The aim was to establish relationships between the cardiotoxicity potential and the biomimetic binding properties of the drugs and to evaluate their predictive performance.

[10] = Charge character of the drugs at pH 7.4; type: physicochemical
HSA [11] = conditions: calibration set; log k = log (%binding/(101-%binding)) from literature % binding
AGP [12] = system: AGP
[13] = reversed-phase HPLC, Gemini NX-C-18 column (50 x 3 mm, 5 µm)
[14] = literature values, mean where several reported, molar

human serum albumin (HSA), sequence (P02768 25-609): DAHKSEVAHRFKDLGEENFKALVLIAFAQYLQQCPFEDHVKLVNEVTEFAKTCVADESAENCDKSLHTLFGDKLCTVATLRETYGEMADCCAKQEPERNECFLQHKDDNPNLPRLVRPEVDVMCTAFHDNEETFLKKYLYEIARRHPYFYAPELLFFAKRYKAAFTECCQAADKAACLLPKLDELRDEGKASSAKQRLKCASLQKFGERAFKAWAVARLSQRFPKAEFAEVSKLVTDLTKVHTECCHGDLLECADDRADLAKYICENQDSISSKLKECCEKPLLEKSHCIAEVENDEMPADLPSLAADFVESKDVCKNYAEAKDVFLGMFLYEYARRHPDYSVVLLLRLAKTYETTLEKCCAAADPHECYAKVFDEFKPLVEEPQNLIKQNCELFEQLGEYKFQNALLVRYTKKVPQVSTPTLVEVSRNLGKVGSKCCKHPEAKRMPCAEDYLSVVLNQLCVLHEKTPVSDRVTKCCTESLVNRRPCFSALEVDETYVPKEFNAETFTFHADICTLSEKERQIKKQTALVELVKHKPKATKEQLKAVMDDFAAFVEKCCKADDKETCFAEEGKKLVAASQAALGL

## CC(=O)Nc1ccccc1 [Acetanilide]
[1]
  CHI IAM: 11.5

## CC(=O)c1ccccc1 [Acetophenone]
[1]
  CHI IAM: 17.2
[2]; calibration set
  CHI at pH 2.6: 64.1
  CHI at pH 7.4: 65.1
  CHI at pH 10.5: 64.1

## c1ccc2[nH]cnc2c1 [Benzimidazole]
[2]; calibration set
  CHI at pH 2.6: 6.3
  CHI at pH 7.4: 34.3
  CHI at pH 10.5: 30.6

## CCCC(=O)c1ccccc1 [Butyrophenone]
[1]
  CHI IAM: 32.0
[2]; calibration set
  CHI at pH 2.6: 87.3
  CHI at pH 7.4: 87.5
  CHI at pH 10.5: 87.3

## NC(=O)N1c2ccccc2C=Cc2ccccc21 [Carbamazepine]
[3]
  CHI IAM: 23.98
  log k IAM: 1.53
[4]
  log k AGP: -0.85
[5]
  chromatographic logD: 1.22
[5]; [13]
  chromatographic logP: 1.33
AGP [6]
  log k AGP: 0.3
hERG channel; [14]
  hERG pIC50: 3.98
AGP [7]
  % AGP: 65.0%
HSA [8]
  %HSA: 75.0%
[9]
  log k HSA: 0.07
[10]
  Charge: Neutral
HSA [11]
  log k HSA: 0.5

## COc1cc2c(c(OC)c1OC)-c1ccc(OC)c(=O)cc1[C@@H](NC(C)=O)CC2 [Colchicine]
[2]
  CHI at pH 2.6: 43.9
  CHI at pH 7.4: 45.0
  CHI at pH 10.5: 43.9

## O=C(O)Cc1ccccc1Nc1c(Cl)cccc1Cl [Diclofenac]
AGP [6]
  log k AGP: 0.2

## CCCCCCC(=O)c1ccccc1 [Heptanophenone]
[1]
  CHI IAM: 45.7

## CCCCCC(=O)c1ccccc1 [Hexanophenone]
[1]
  CHI IAM: 41.8

## c1ccc2[nH]ccc2c1 [Indole]
[2]
  CHI at pH 2.6: 72.1
  CHI at pH 7.4: 71.5
  CHI at pH 10.5: 72.1

## COc1ccc2c(c1)c(CC(=O)O)c(C)n2C(=O)c1ccc(Cl)cc1 [Indomethacin]
[3]
  CHI IAM: 30.11
  log k IAM: 1.81
[4]
  log k AGP: 0.18
[5]
  chromatographic logP: 3.31
  chromatographic logD: 1.47
AGP [6]
  log k AGP: 0.1
hERG channel
  hERG pIC50: 3.72
AGP [7]
  % AGP: 56.0%
[10]
  Charge: Acidic
HSA [11]
  log k HSA: 1.8

## COC(=O)C1=C(C)NC(C)=C(C(=O)OCCN(C)Cc2ccccc2)C1c1cccc([N+](=O)[O-])c1 (stereo not drawn) [Nicardipine]
AGP [6]
  log k AGP: 0.8
AGP [7]
  % AGP: 87.0%
HSA [11]
  log k HSA: 1.2

## CNC(=C[N+](=O)[O-])NCCSCc1csc(CN(C)C)n1 [Nizatidine]
AGP [6]
  log k AGP: -0.2
AGP [7]
  % AGP: 37.1%
HSA [8]
  %HSA: 20.4%
HSA [11]
  log k HSA: -0.6

## CCCCCCCC(=O)c1ccccc1 [Octanophenone]
[1]
  CHI IAM: 49.4

## CC(=O)Nc1ccc(O)cc1 [Paracetamol]
AGP [6]
  log k AGP: -1.5
[1]
  CHI IAM: 2.9
AGP [7]
  % AGP: 3.2%
HSA [8]
  %HSA: 14.0%
HSA [11]
  log k HSA: -0.8

## c1ccc(-c2nn[nH]n2)cc1 [Phenyl tetrazole]
[2]; calibration set
  CHI at pH 2.6: 42.2
  CHI at pH 7.4: 23.6
  CHI at pH 10.5: 16.0

## Cn1c(=O)c2nc(-c3ccccc3)[nH]c2n(C)c1=O [Phenyl theophylline]
[2]; calibration set
  CHI at pH 2.6: 51.7
  CHI at pH 7.4: 51.2
  CHI at pH 10.5: 51.3

## CCC(=O)c1ccccc1 [Propiophenone]
[1]
  CHI IAM: 25.9
[2]; calibration set
  CHI at pH 2.6: 77.4
  CHI at pH 7.4: 77.4
  CHI at pH 10.5: 77.4

## CCCOC(C(=O)OC1CCN(C)CC1)(c1ccccc1)c1ccccc1 [Propiverine]
[3]
  log k IAM: 3.12
[4]
  log k AGP: 0.94
[5]
  chromatographic logD: 3.84
[5]; [13]
  chromatographic logP: 5.05
hERG channel; [14]
  hERG pIC50: 5.22
[9]
  log k HSA: 1.01
[10]
  Charge: Basic

## CC(C)NCC(O)COc1cccc2ccccc12 (stereo not drawn) [Propranolol]
[3]
  log k IAM: 2.36
[4]
  log k AGP: 0.84
AGP [6]
  log k AGP: 0.8
AGP [7]
  % AGP: 86.0%
HSA [8]
  %HSA: 66.6%
[10]
  Charge: Basic
HSA [11]
  log k HSA: 0.3

## COc1ccc(CN(CCN(C)C)c2ccccn2)cc1 [Pyrilamine]
[3]
  CHI IAM: 46.62
  log k IAM: 2.56
[4]
  log k AGP: 0.49
[5]
  chromatographic logD: 1.72
[5]; [13]
  chromatographic logP: 3.32
hERG channel
  hERG pIC50: 5.18
[9]
  log k HSA: 0.44
[10]
  Charge: Basic

## CC[C@H]1OC(=O)[C@H](C)[C@@H](O[C@H]2C[C@@](C)(OC)[C@@H](O)[C@H](C)O2)[C@H](C)[C@@H](O[C@@H]2O[C@H](C)C[C@H](N(C)C)[C@H]2O)[C@](C)(O)C[C@@H](C)/C(=N\OCOCCOC)[C@H](C)[C@@H](O)[C@]1(C)O [Roxithromycin]
[3]
  CHI IAM: 51.33
  log k IAM: 2.78
[4]
  log k AGP: 0.60
[5]
  chromatographic logD: 1.95
[5]; [13]
  chromatographic logP: 3.7
hERG channel; [14]
  hERG pIC50: 4.44
[9]
  log k HSA: -0.07
[10]
  Charge: Basic

## CCOc1ccccc1OCCN[C@H](C)Cc1ccc(OC)c(S(N)(=O)=O)c1 [Tamsulosin]
[3]
  log k IAM: 2.00
[4]
  log k AGP: 0.60
[5]
  chromatographic logD: 1.43
[5]; [13]
  chromatographic logP: 2.01
hERG channel; [14]
  hERG pIC50: 4.89
[9]
  log k HSA: 0.36
[10]
  Charge: Basic

## Cn1c(=O)c2[nH]cnc2n(C)c1=O [Theophylline]
[2]; calibration set
  CHI at pH 2.6: 17.9
  CHI at pH 7.4: 18.4
  CHI at pH 10.5: 5.0

## COc1cc(Cc2cnc(N)nc2N)cc(OC)c1OC [Trimethoprim]
[3]
  log k IAM: 1.01
[4]
  log k AGP: -0.07
AGP [6]
  log k AGP: -0.1
hERG channel; [14]
  hERG pIC50: 3.62
AGP [7]
  % AGP: 46.2%
HSA [8]
  %HSA: 37.6%
[9]
  log k HSA: -0.05
HSA [11]
  log k HSA: -0.2

## CCCCC(=O)c1ccccc1 [Valerophenone]
[1]
  CHI IAM: 37.3
[2]; calibration set
  CHI at pH 2.6: 96.4
  CHI at pH 7.4: 96.2
  CHI at pH 10.5: 96.4

## CC(=O)CC(c1ccccc1)c1c(O)c2ccccc2oc1=O (stereo not drawn) [Warfarin]
AGP [12]
  log k AGP: 0.7
AGP [7]
  % AGP: 83.2%
HSA [11]
  log k HSA: 1.5

## O=C1Cc2cc(CCN3CCN(c4nsc5ccccc45)CC3)c(Cl)cc2N1 [Ziprasidone]
[3]
  CHI IAM: 47.92
  log k IAM: 2.62
[4]
  log k AGP: 1.09
[5]
  chromatographic logD: 2.98
[5]; [13]
  chromatographic logP: 2.96
hERG channel
  hERG pIC50: 6.44
[9]
  log k HSA: 1.42
[10]
  Charge: Weak Base

Source: publication PMC8920097, “Prediction of hERG inhibition of drug discovery compounds using biomimetic HPLC measurements” (ADMET & DMPK, 2021)
